Source: patent US10526336B2, “Fused heteroaryl derivatives as orexin receptor antagonists” (Merck Sharp & Dohme Corp., priority 2014, dated 2020)

Biological target: human orexin-2 receptor (Homo sapiens (Human), UniProt O43614)
Assay: FLIPR Ca2+ Flux Assay, orexin-2 receptor antagonism in CHO cells
Format: cell-based
Conditions: CHO cells expressing the human orexin-2 receptor; agonist 70 pM Ala-6,12 orexin-A; read-out: hOX2 FLIPR IC50
Description: The utility of the compounds in accordance with the present invention as orexin receptor OX1R and/or OX2R antagonists may be readily determined without undue experimentation by methodology well known in the art, including the “FLIPR Ca^2+ Flux Assay” (Okumura et al., Biochem. Biophys. Res. Comm. 280:976-981, 2001). In a typical experiment the OX1 and OX2 receptor antagonistic activity of the compounds of the present invention was determined in accordance with the following experimental method. For intracellular calcium measurements, Chinese hamster ovary (CHO) cells expressing the rat orexin-1 receptor or the human orexin-2 receptor, are grown in Iscove's modified DMEM containing 2 mM L-glutamine, […], 1% hypoxanthine-thymidine supplement, 100 U/ml penicillin, 100 μg/ml streptomycin and 10% heat-inactivated fetal calf serum (FCS). The cells are seeded at 20,000 cells/well into Becton-Dickinson black 384-well clear bottom sterile plates coated with poly-D-lysine. All reagents are from GIBCO-Invitrogen Corp. The seeded plates are incubated overnight at 37° C. and 5% CO2. Ala-6,12 human orexin-A as the agonist is prepared as a 1 mM stock solution in 1% bovine serum albumin (BSA) and diluted in assay buffer (HBSS containing 20 mM HEPES, 0.1% BSA and 2.5 mM probenecid, pH7.4) for use in the assay at a final concentration of 70 pM. Test compounds are prepared as 10 mM stock solution in DMSO, then diluted in 384-well plates, first in DMSO, then assay buffer. On the day of the assay, cells are washed 3 times with 100 μl assay buffer and then incubated for 60 min (37° C., 5% CO2) in 60 μl assay buffer containing […] Fluo-4AM ester, 0.02% pluronic acid, and 1% BSA. The dye loading solution is then aspirated and cells are washed 3 times with 100 μl assay buffer. 30 μl of that same buffer is left in each well. Within the Fluorescent Imaging Plate Reader (FLIPR, Molecular Devices), test compounds are added to the plate in a volume of 25 μl, incubated for 5 min and finally 25 μl of agonist is added. Fluorescence is measured for each well at 1 second intervals for 5 minutes and the height of each fluorescence peak is compared to the height of the fluorescence peak induced by 70 pM Ala-6,12 orexin-A with buffer in place of antagonist. For each antagonist, IC50 value (the concentration of compound needed to inhibit 50% of the agonist response) is determined. Alternatively, compound potency can be assessed by a radioligand binding assay (described in Bergman et. al. Bioorg. Med. Chem. Lett. 2008, 18, 1425-1430) in which the inhibition constant (Ki) is determined in membranes prepared from CHO cells expressing either the OX1 or OX2 receptor. The intrinsic orexin receptor antagonist activity of a compound which may be used in the present invention may be determined by these assays.

Chain of human orexin-2 receptor (O43614 whole entry): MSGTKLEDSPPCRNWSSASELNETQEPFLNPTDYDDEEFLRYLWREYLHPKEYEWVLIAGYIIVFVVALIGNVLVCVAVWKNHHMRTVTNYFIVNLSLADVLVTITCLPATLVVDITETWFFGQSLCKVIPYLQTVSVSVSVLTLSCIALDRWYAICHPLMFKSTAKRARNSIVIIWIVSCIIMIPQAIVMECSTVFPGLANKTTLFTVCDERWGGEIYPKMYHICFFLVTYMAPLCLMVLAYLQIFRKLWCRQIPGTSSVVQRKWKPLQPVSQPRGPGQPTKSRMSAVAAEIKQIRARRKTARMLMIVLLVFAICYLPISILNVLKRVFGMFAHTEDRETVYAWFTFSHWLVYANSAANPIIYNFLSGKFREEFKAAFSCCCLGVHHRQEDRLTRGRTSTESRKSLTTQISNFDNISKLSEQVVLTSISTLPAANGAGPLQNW

Structure (SMILES)	IC50 [nM]
C[C@@H]1CC[C@@H](Oc2nccn3c(Cl)cnc23)CN1C(=O)c1ccccc1-n1ncnn1 [Example 27, (2-(2H-tetrazol-2-yl)phenyl) ((2R,5R)-5-((3-chloroimidazo[1,2-α]pyrazin-8-yl)oxy)-2-methylpiperidin-1-yl)methanone]	9.1
C[C@@H]1CC[C@@H](Oc2nccn3c(Cl)cnc23)CN1C(=O)c1ccccc1C1(C#N)CC1 [Example 28, 1-(2-((2R,5R)-5-((3-chloroimidazo[1,2-α]pyrazin-8-yl)oxy)-2-methylpiperidine-1-carbonyl)phenyl) cyclopropanecarbonitrile]	9.5
C[C@@H]1CC[C@@H](Oc2nccn3c(Cl)cnc23)CN1C(=O)c1ccsc1-n1nccn1 [Example 29, (2-(2H-1,2,3-triazol-2-yl)thiophen-3-yl)((2R,5R)-5-((3-chloroimidazo[1,2-α]pyrazin-8-yl)oxy)-2-methylpiperidin-1-yl)methanone]	14.3
C[C@@H]1CC[C@@H](Nc2nccn3c(Cl)cnc23)CN1C(=O)c1ccccc1-n1nccn1 [Example 30, (2-(2H-1,2,3-triazol-2-yl)phenyl)((2R,5R)-5-((3-chloroimidazo[1,2-a]pyrazin-8-yl)amino)-2-methylpiperidin-1-yl)methanone]	13.9
C[C@@H]1CC[C@@H](Nc2nccn3c(Cl)cnc23)CN1C(=O)c1ccccc1-c1ncccn1 [Example 31, ((2R,5R)-5-((3-chloroimidazo[1,2-a]pyrazin-8-yl)amino)-2-methylpiperidin-1-yl)(2-(pyrimidin-2-yl)phenyl)methanone]	23.7
C[C@@H]1CC[C@@H](Oc2nccn3c(F)cnc23)CN1C(=O)c1ccccc1-n1nccn1 [Example 32, (2-(2H-1,2,3-triazol-2-yl)phenyl)((2R,5R)-5-((3-fluoroimidazo[1,2-a]pyrazin-8-yl)oxy)-2-methylpiperidin-1-yl)methanone]	12.6
C[C@@H]1CC[C@@H](Oc2nccn3c(Br)cnc23)CN1C(=O)c1ccccc1-n1nccn1 [Example 33, (2-(2H-1,2,3-triazol-2-yl)phenyl)((2R,5R)-5-((3-bromoimidazo[1,2-a]pyrazin-8-yl)oxy)-2-methylpiperidin-1-yl)methanone]	8.9
Cc1cnc2c(O[C@@H]3CC[C@@H](C)N(C(=O)c4ccccc4-n4nccn4)C3)nccn12 [Example 34, (2-(2H-1,2,3-triazol-2-yl)phenyl)((2R,5R)-2-methyl-5-((3-methylimidazo[1,2-a]pyrazin-8-yl)oxy)piperidin-1-yl)methanone]	16.3
C[C@@H]1CC[C@@H](Oc2nccn3c(C#N)cnc23)CN1C(=O)c1ccccc1-n1nccn1 [Example 35, 8-(((3R,6R)-1-(2-(2H-1,2,3-triazol-2-yl)benzoyl)-6-methylpiperidin-3-yl)oxy)imidazo[1,2-a]pyrazine-3-carbonitrile]	73.7
C=Cc1cnc2c(O[C@@H]3CC[C@@H](C)N(C(=O)c4ccccc4-n4nccn4)C3)nccn12 [Example 36, (2-(2H-1,2,3-triazol-2-yl)phenyl)((2R,5R)-2-methyl-5-((3-vinylimidazo[1,2-a]pyrazin-8-yl)oxy)piperidin-1-yl)methanone]	21
CCc1cnc2c(O[C@@H]3CC[C@@H](C)N(C(=O)c4ccccc4-n4nccn4)C3)nccn12 [Example 37, (2-(2H-1,2,3-triazol-2-yl)phenyl)((2R,5R)-5-((3-ethylimidazo[1,2-a]pyrazin-8-yl)oxy)-2-methylpiperidin-1-yl)methanone]	29.2
C[C@@H]1CC[C@@H](Oc2nccn3c(C(F)F)cnc23)CN1C(=O)c1ccccc1-n1nccn1 [Example 38, (2-(2H-1,2,3-triazol-2-yl)phenyl)((2R,5R)-5-((3-(difluoromethyl)imidazo[1,2-a]pyrazin-8-yl)oxy)-2-methylpiperidin-1-yl)methanone]	17.6
C[C@@H]1CC[C@@H](Oc2nccn3c(C(F)F)cnc23)CN1C(=O)c1ccccc1CS(C)(=O)=O [Example 39, ((2R,5R)-5-((3-(difluoromethyl)imidazo[1,2-a]pyrazin-8-yl)oxy)-2-methylpiperidin-1-yl)(2-((methylsulfonyl)methyl)phenyl)methanone]	62.6
C[C@@H]1CC[C@@H](Oc2nccn3c(C(F)F)cnc23)CN1C(=O)c1ccsc1-n1nccn1 [Example 40, (2-(2H-1,2,3-triazol-2-yl)thiophen-3-yl)((2R,5R)-5-((3-(difluoromethyl)imidazo[1,2-α]pyrazin-8-yl)oxy)-2-methylpiperidin-1-yl)methanone]	10.5
C[C@@H]1CC[C@@H](Oc2nccn3c(C(F)F)cnc23)CN1C(=O)c1cscc1-n1nccn1 [Example 41, (4-(2H-1,2,3-triazol-2-yl)thiophen-3-yl)((2R,5R)-5-((3-(difluoromethyl)imidazo[1,2-α]pyrazin-8-yl)oxy)-2-methylpiperidin-1-yl)methanone]	45.7
C[C@@H]1CC[C@@H](Oc2nccn3c(C(F)F)cnc23)CN1C(=O)c1ccccc1C1(C#N)CC1 [Example 42, 1-(2-((2R,5R)-5-((3-(difluoromethyl)imidazo[1,2-α]pyrazin-8-yl)oxy)-2-methylpiperidine-1-carbonyl)phenyl)cyclopropanecarbonitrile]	5
C[C@@H]1CC[C@@H](Oc2nccn3c(C(F)F)cnc23)CN1C(=O)c1ccc(F)cc1-n1nccn1 [Example 43, ((2R,5R)-5-((3-(difluoromethyl)imidazo[1,2-α]pyrazin-8-yl)oxy)-2-methylpiperidin-1-yl)(4-fluoro-2-(2H-1,2,3-triazol-2-yl)phenyl)methanone]	15.7
C[C@@H]1CC[C@@H](Oc2nccn3c(C(F)F)cnc23)CN1C(=O)c1ccccc1-n1ncnn1 [Example 44, (2-(2H-tetrazol-2-yl)phenyl)((2R,5R)-5-((3-(difluoromethyl)imidazo[1,2-α]pyrazin-8-yl)oxy)-2-methylpiperidin-1-yl)methanone]	9.6
COCc1ccccc1C(=O)N1C[C@H](Oc2nccn3c(C(F)F)cnc23)CC[C@H]1C [Example 45, ((2R,5R)-5-((3-(difluoromethyl)imidazo[1,2-α]pyrazin-8-yl)oxy)-2-methylpiperidin-1-yl)(2-(methoxymethyl)phenyl)methanone]	108
C[C@@H]1CC[C@@H](Oc2nccn3c(C(F)F)cnc23)CN1C(=O)c1nccnc1-n1cccn1 [Example 46, (3-(1H-pyrazol-1-yl)pyrazin-2-yl)((2R,5R)-5-((3-(difluoromethyl)imidazo[1,2-α]pyrazin-8-yl)oxy)-2-methylpiperidin-1-yl)methanone]	61.9
C[C@@H]1CC[C@@H](Oc2nccn3c(C(F)F)cnc23)CN1C(=O)c1nccnc1-c1ccccn1 [Example 47, ((2R,5R)-5-((3-(difluoromethyl)imidazo[1,2-α]pyrazin-8-yl)oxy)-2-methylpiperidin-1-yl)(3-(pyridin-2-yl)pyrazin-2-yl)methanone]	64.9
COC(=O)c1ccccc1C(=O)N1C[C@H](Oc2nccn3c(C(F)F)cnc23)CC[C@H]1C [Example 48, methyl 2-((2R,5R)-5-((3-(difluoromethyl)imidazo[1,2-α]pyrazin-8-yl)oxy)-2-methylpiperidine-1-carbonyl)benzoate]	24.9
C[C@@H]1CC[C@@H](Oc2nccn3c(C(F)F)cnc23)CN1C(=O)c1ncccc1-c1ccccc1 [Example 49, ((2R,5R)-5-((3-(difluoromethyl)imidazo[1,2-α]pyrazin-8-yl)oxy)-2-methylpiperidin-1-yl)(3-phenylpyridin-2-yl)methanone]	51.8
C[C@@H]1CC[C@@H](Oc2nccn3c(C(F)F)cnc23)CN1C(=O)c1cccnc1OCC(F)(F)F [Example 50, ((2R,5R)-5-((3-(difluoromethyl)imidazo[1,2-α]pyrazin-8-yl)oxy)-2-methylpiperidin-1-yl)(2-(2,2,2-trifluoroethoxy)pyridin-3-yl)methanone]	26.5
C[C@@H]1CC[C@@H](Oc2nccn3c(C(F)F)cnc23)CN1C(=O)c1cccnc1OCC(F)F [Example 51, (2-(2,2-difluoroethoxy)pyridin-3-yl)((2R,5R)-5-((3-(difluoromethyl)imidazo[1,2-α]pyrazin-8-yl)oxy)-2-methylpiperidin-1-yl) methanone]	31.8
